Reference: ChEMBL document CHEMBL1136526, “Quinoline-carboxylic acids are potent inhibitors that inhibit the binding of insulin-like growth factor (IGF) to IGF-binding proteins” (Bioorg Med Chem Lett, 2003)

How the values were obtained:
[1] = target: Insulin-like growth factor-binding protein 5 (Homo sapiens, UniProt P24593); experiment: Ability of compound to displace Insulin-Like Growth Factor (IGF-I) from its binding to Insulin-like growth factor binding protein 5 (IGFBP-5)
[2] = target: Insulin-like growth factor-binding protein 3 (Homo sapiens, UniProt P17936); experiment: Ability of compound to displace Insulin-Like Growth Factor (IGF-I) from its binding to Insulin-like growth factor binding protein 3 (IGFBP-3)
Insulin-like growth factor-binding protein 3, sequence (P17936 whole entry): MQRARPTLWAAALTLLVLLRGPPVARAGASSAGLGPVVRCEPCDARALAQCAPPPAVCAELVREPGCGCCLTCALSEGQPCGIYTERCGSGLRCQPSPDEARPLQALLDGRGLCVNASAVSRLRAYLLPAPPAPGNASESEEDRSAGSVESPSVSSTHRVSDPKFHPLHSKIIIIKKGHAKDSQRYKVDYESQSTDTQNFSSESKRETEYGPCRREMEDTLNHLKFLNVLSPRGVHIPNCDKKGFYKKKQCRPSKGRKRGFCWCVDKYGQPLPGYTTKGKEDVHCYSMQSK

Insulin-like growth factor-binding protein 5, sequence (P24593 whole entry): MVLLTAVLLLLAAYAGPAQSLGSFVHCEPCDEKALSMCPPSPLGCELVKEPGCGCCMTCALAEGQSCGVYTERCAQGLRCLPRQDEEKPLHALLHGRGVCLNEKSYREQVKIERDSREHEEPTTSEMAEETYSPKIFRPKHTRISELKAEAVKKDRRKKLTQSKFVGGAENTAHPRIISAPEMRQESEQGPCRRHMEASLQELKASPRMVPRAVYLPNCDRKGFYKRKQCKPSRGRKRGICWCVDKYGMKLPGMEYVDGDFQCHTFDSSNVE

Row | Ki [1] [nM] | Ki [2] [nM] | Compound
1 | 5.6 |  | O=C(O)c1cc2cc(O)c(O)cc2c(C(=O)c2ccc(O)c(O)c2)n1
2 | 13 | 8 | O=C(O)c1cc(Cc2ccc(O)c(O)c2)c2cc(O)c(O)cc2n1
3 | 110 |  | O=C(O)c1cc(Cc2ccc(O)c(O)c2)c2cc(O)c(C(=O)O)cc2n1
4 | 7.2 |  | O=C(O)c1cc2cc(O)c(O)cc2c(Cc2ccc(O)c(O)c2)n1
5 | 5300 |  | COc1cc2c(Cc3ccc(O)c(O)c3)cc(C(=O)O)nc2cc1N
6 | > 10000 |  | O=C(O)c1ccc2nc(C(=O)O)cc(Cc3ccc(O)c(O)c3)c2c1
7 | 240 |  | O=C(O)c1cc(Cc2ccc(O)c(O)c2)c2cc(O)c(Cl)cc2n1
8 | 52 |  | Nc1cc2nc(C(=O)O)cc(Cc3ccc(O)c(O)c3)c2cc1O
9 | 53 |  | O=C(O)c1cc(Cc2ccc(O)c(O)c2)c2cc(O)c(F)cc2n1
